# Assay results taken from US20240366555A1, “SELECTIVE MTORC2 INHIBITOR AND USES THEREOF” (ALIAD BIOPHARMA, priority 2021, published 2024).
# Columns and labels:
# [1] = system: mTORC2 signaling (Fox03a location); test: Fox03a intracellular location by immunofluorescent staining in A549; format: cell-based, human; conditions: A549 cells, treated for 3 hours; FIG. 7c
# Text: mTORC2 activates SGK3, and SGK3 phosphorylates Fox03a, allowing Fox03a to remain in the cytoplasm. When mTORC2 is inhibited, Fox03a is dephosphorylated and translocated to the nucleus, and in the nucleus, it binds to FHRE located in a gene promoter to induce gene expression. Therefore, the change in the intracellular location of Fox03a and FHRE dependent gene expression become indicators for evaluating mTORC2 activity. In order to evaluate the effect of norathyriol on the mTORC2 activity, norathyriol was treated to A549, and then the change in the intracellular location of Fox03a was investigated by immunofluorescent staining.
# Specifically, the A549 cells of 1×10^5 were seeded in a confocal dish coated with 35 mm collagen and cultured for 1 day. After treating norathyriol, the cells were fixed with 4% paraformaldehyde at 4° C. for 15 minutes. After treating PBS containing 0.5% Triton X-100 (PBS-T) at a room temperature for 5 minutes for permeabilization, PBS containing 5% normal goat serum and 1% gelatin was treated at a room temperature for 30 minutes for blocking. The Fox03a antibody diluted in 1% BSA was treated at a room temperature for 1 hour. After washing the culture dish with PBS-T, an FITC conjugated anti-rabbit secondary antibody diluted in 1% BSA was treated at a room temperature for 50 minutes. […]
# Pten KO mice [2] = test: Elevated plus maze test in Pten KO mice; format: in vivo; conditions: Pten KO mice administered athyriol; FIG. 2
# Method: (§1) As Pten KO mice, Ptenf/f_cre/cre KO mice or Ptenf/f_cre/++ Het mice (KD) were obtained by mating Pten floxed/floxed mice and CAMKII-cre mice. DMSO or athyriol was intraperitoneally injected at 5 or 10 mg/kg for 2 weeks from the age of mice of 6 weeks, and a behavioral test was performed in 7 days after administration. Pten floxed/floxed mice were used as littermates of the same age as a normal control group.
# In order to confirm whether emotional instability was improved, when athyriol was administered to an autism spectrum disorder animal model, Pten KO mice, an elevated plus maze test was performed. An anxiety disorder animal model behavioral test was evaluated as a tendency to avoid an open arm exposed to the elevated-plus maze and stay in a closed arm. Analysis was conducted with a video tracking system (Ethovision EPM program, Noldus information technology, Wageningen, Netherlands). In the elevated plus maze test measuring emotional instability disorder, when the emotional anxiety increases, the time spent in the closed arm increases compared to the time spent in the open arm.
# Pten KO mice [3] = test: Social-open field test in Pten KO mice; format: in vivo; conditions: 5 or 10 mg/kg, FIG. 3
# Method: as §1
# When athyriol was administered to the Pten KO mice, in order to confirm the sociability disorder was improved, a social-open field test was performed. After adapting the Pten-KO mice to the record environment for 30 minutes, they were adapted to the open filed test space made of black acrylic for 10 minutes. An unfamiliar mouse was placed in a test space in a transparent acrylic cage allowing minimal contact with the sense of smell. The movement of the test mouse was recorded for 10 minutes and analyzed with ethovision 3.1 program. Then, sociability was measured by setting 10 cm around the cylinder where the unfamiliar mouse was placed.
# The social-open field test is measuring sociability as the time spent in a social interaction zone in contact with other mice in an open space, and measures the time of actually contacting also in the contact space, or sniffling toward other mice. […]
# Pten KO mice [4] = test: Macrocephaly alleviation (brain weight) in Pten KO mice; format: in vivo; design: average brain weight: unit not given here; conditions: for average brain weight: FIG. 5
# Method: as §1
# When athyriol was administered into Pten KO mice, whether the weight of brain increased compared to a mouse without Pten knockout was reduced was confirmed. In other words, whether athyriol had efficacy of alleviating macrocephaly symptoms was confirmed through the following experiment.
# Specifically, the body weight was measured after the aforementioned behavioral test of Experimental examples 1-2 to 1-6, and then animals were sacrificed. After removing the skull, the brain including forebrain, midbrain and hindbrain was extracted and the ratio of brain weight to body weight and the body weight were measured.
# normal mice = test: 3 chamber test in normal mice; format: in vivo; conditions: 5 mg/kg, sociability measurement-2 session, FIG. 14b
# Method: 3-chamber test is a test to confirm sociability, social cognition, and social sexual preference, and it was tested by composing sessions 1 and 2. The experimental site was consisted of three chambers made of transparent acrylic walls with a small door and each chamber was length 50 cm×width 100 cm×height 50 cm. Through a cylindrical cage, the sense of smell and minimal contact of the test mice to the unfamiliar mouse were allowed. Prior to the test, the test mice were placed in an intermediate chamber and adapted for 5 minutes with both doors closed. The test was performed by dividing into sessions I and II. In the 3-chamber sociability measurement-1 session, an unfamiliar mouse met first was placed in a transparent box located at one end of the three rooms, and an empty transparent box of the same size was placed in the room located at the other side, and the target mouse was placed in the middle room, and then the time searching toward the counterpart within the social interaction zone was measured.
# In order to verify this possibility, the efficacy of athyriol on memory ability and sociability of normal animals was investigated. […]
Compound,intracellular location of Fox03a [1],reduction of time spent in the closed arm (Pten KO mice [2]) [%],time in the center zone (Pten KO mice [2]),increase of direct counterpart searching time (Pten KO mice [3]) [%],"brain weight corrected by body weight, increase compared to control group (Pten KO mice [4]; 5 mg/kg)",average brain weight (Pten KO mice [4]; 5 mg/kg for 14 days),"brain weight corrected by body weight, increase compared to control group (Pten KO mice [4]; 10 mg/kg) [times]",average brain weight (Pten KO mice [4]; 10 mg/kg for 14 days),alleviation of macrocephaly symptoms (Pten KO mice [4]; 5 or 10 mg/kg for 14 days) [%],increase in ratio of searching time for familiar mice to searching time for unfamiliar mice compared to vehicle control (normal mice) [%]
"O=c1c2cc(O)c(O)cc2oc2cc(O)cc(O)c12 [norathyriol, 1,3,6,7-tetrahydroxy-9H-xanthen-9-one]",moved to the nucleus,,,,,,,,,
"COc1cc(O)c2c(=O)c3cc(O)c(O)cc3oc2c1 [athyriol, 1,6,7-Trihydroxy-3-methoxy-9H-xanthen-9-on]",,15,recovered to the normal control group level,6,about 1.3 times,517,~1.26,515,≥ 68,11
